# According to patent US4217446A, “ωAmino-2-hydroxyalkyl derivatives of aminoglycoside antibiotics” (Pfizer Inc., priority 1974, dated 1980):
# Tests used:
# Escherichia coli = test: in vitro antibacterial activity, minimum inhibitory concentration (M.I.C.), agar plates; type: cell-based; details: 24 hours at 37° C., read-out: MIC Esch. coli
# Experimental: (§1) The in vitro evaluation of the compounds of the invention as antibacterial agents has been performed by determining the minimum inhibitory concentration (M.I.C.) of the test compound in a suitable medium at which growth of the particular micro-organism fails to occur. In practice, agar plates, each having incorporated therein the test compound at a particular concentration are inoculated with a standard number of cells of the test micro-organism and each plate is then incubated for 24 hours at 37° C. The plates are then observed for the presence or absence of the growth of bacteria and the appropriate M.I.C. value noted. Micro-organisms used in such tests having included strains of Escherichia coli, Klebsiella pneumoniae, Proteus mirabilis, Pseudomonas aeruginosa, Staphylococcus aureus and Streptococcus faecalis. Results of the testing of several of the compounds of this invention for their in vitro antibacterial activity, by the method described hereinbefore, are presented in Table I.
# Klebsiella pneumoniae = test: as above; type: cell-based; details: 24 hours at 37° C., read-out: MIC Kleb. pneumoniae
# Experimental: as §1
# Proteus mirabilis = test: as above; type: cell-based; details: 24 hours at 37° C.
# Experimental: as §1
# Pseudomonas aeruginosa = test: as above; type: cell-based; details: 24 hours at 37° C., read-out: MIC Pseud. aeruginosa
# Experimental: as §1
# Staphylococcus aureus = test: as above; type: cell-based; details: 24 hours at 37° C., read-out: MIC Staph. aureus
# Experimental: as §1
# E. coli = test: in vivo antibacterial activity against E. coli in mice, 50% protection against lethal effect; details: Escherichia coli, sc, subcutaneous, 50% protection over 72 hours, read-out: PD50
# Experimental: Each compound is administered at a series of dosage levels to groups of mice and its activity is determined as the level at which it gives 50% protection, against the lethal effect of the Escherichia coli organism over a period of 72 hours.
# The in vivo antibacterial activity of 1-N-[(S)-4-amino-2-hydroxybutyl]kanamycin A against E. coli in mice has been measured.
MIC (Escherichia coli),MIC (Klebsiella pneumoniae),MIC (Proteus mirabilis),MIC (Pseudomonas aeruginosa),MIC (Staphylococcus aureus),SMILES,ED50 (E. coli)
12.5 mg/L,6.2 mg/L,12.5 mg/L,3.1 mg/L,3.1 mg/L,"NCC(O)CN[C@@H]1C[C@H](N)[C@@H](O[C@H]2O[C@H](CN)[C@@H](O)[C@H](O)[C@H]2O)[C@H](O)[C@H]1O[C@H]1O[C@H](CO)[C@@H](O)[C@H](N)[C@H]1O (stereo partly drawn) [1-N-[3-amino-2-hydroxypropyl]kanamycin, 1-N-[3-Amino-2-hydroxpropyl]kanamycin A]",–
3.1 mg/L,1.6 mg/L,6.2 mg/L,0.8 mg/L,1.6 mg/L,NCC[C@H](O)CN[C@@H]1C[C@H](N)[C@@H](O[C@H]2O[C@H](CN)[C@@H](O)[C@H](O)[C@H]2N)[C@H](O)[C@H]1O[C@H]1O[C@H](CO)[C@@H](O)[C@H](N)[C@H]1O [1-N-[(S)-4-Amino-2-hydroxybutyl]kanamycin B],–
6.2 mg/L,6.2 mg/L,3.1 mg/L,3.1 mg/L,1.6 mg/L,NCCCC[C@H](O)CN[C@@H]1C[C@H](N)[C@@H](O[C@H]2O[C@H](CN)[C@@H](O)[C@H](O)[C@H]2O)[C@H](O)[C@H]1O[C@H]1O[C@H](CO)[C@@H](O)[C@H](N)[C@H]1O [1-N-[(S)-6-Amino-2-hydroxyhexyl]-kanamycin A],–
6.2 mg/L,3.1 mg/L,6.2 mg/L,3.1 mg/L,3.1 mg/L,CNC[C@H]1O[C@H](O[C@H]2[C@H](O)[C@@H](O[C@H]3O[C@H](CO)[C@@H](O)[C@H](N)[C@H]3O)[C@H](NC[C@@H](O)CCN)C[C@@H]2N)[C@H](O)[C@@H](O)[C@@H]1O [6'-N-Methyl-1-N-[(S)-4-amino-2-hydroxybutyl]kanamycin A],–
6.2 mg/L,3.1 mg/L,12.5 mg/L,3.1 mg/L,1.6 mg/L,NCCC[C@H](O)CN[C@@H]1C[C@H](N)[C@@H](O[C@H]2O[C@H](CN)[C@@H](O)[C@H](O)[C@H]2O)[C@H](O)[C@H]1O[C@H]1O[C@H](CO)[C@@H](O)[C@H](N)[C@H]1O [1-N-[(S)-5-Amino-2-hydroxypentyl]kanamycin A],–
6.2 mg/L,6.2 mg/L,25 mg/L,12.5 mg/L,12.5 mg/L,NCC[C@H](O)CN[C@@H]1C[C@H](N)[C@@H](O[C@H]2O[C@H](CN)[C@@H](O)[C@H](O)[C@H]2N)[C@H](O[C@@H]2O[C@H](CO)[C@@H](O)[C@H]2O)[C@H]1O [1-N-[(S)-4-Amino-2-hydroxybutyl]ribostamycin],–

SMILES,MIC (Escherichia coli),MIC (Klebsiella pneumoniae),MIC (Proteus mirabilis),MIC (Pseudomonas aeruginosa),MIC (Staphylococcus aureus),ED50 (E. coli)
NCC[C@H](O)CN[C@@H]1C[C@H](N)[C@@H](O[C@H]2O[C@H](CN)[C@@H](O)[C@H](O)[C@H]2O)[C@H](O)[C@H]1O[C@H]1O[C@H](CO)[C@@H](O)[C@H](N)[C@H]1O [1-N-[(S)-4-Amino-2-hydroxybutyl]kanamycin A],6.2 mg/L,3.1 mg/L,3.1 mg/L,1.6 mg/L,1.6 mg/L,3.8 mg/kg
